The target of one test is HPK1 (Homo sapiens (Human), UniProt Q92918). The experiment in a line: HPK1 enzyme activity detection (1 mM ATP system), ADP-Glo with MBP substrate, Pharmacological Experiment 2. The test is classed as biochemical. The method, then:
(§1) Pharmacological Experiment 2: […] The test compound was serially diluted using DMSO to 200 times the detection concentration. […] Centrifuge at 1000×g for 30 seconds and incubate at 25° C. for 15 minutes. • (5) Adding ATP and substrate: Add 2 μL of 2×ATP-MBP solution to the 384-well plate and centrifuge at 1000×g for 30 seconds. Seal the plate with a sealing film and incubate at 25° C. for 60 minutes. • (6) Add ADP-Glo reagent: Add 4 μL ADP-Glo reagent (Promega, V9103) to the 384-well plate, centrifuge at 1000×g for 30 seconds, and incubate at 25° C. for 60 minutes. • (7) Detection of luminescent signal; Add 8 μL of luminescent detection reagent (Promega, V9103) to a 384-well plate, centrifuge at 1000×g for 30 seconds, and incubate at 25° C. for 60 minutes. The chemiluminescent signal was read using a BMG instrument. • (8) Calculation of percentage inhibition rate: […] See Table 2 for the enzymatic IC 50 data of the example compounds on HPK1.

In a further test the target is GLK (Homo sapiens (Human), UniProt Q8IVH8). Briefly: GLK kinase assay (1 mM ATP system), ADP-Glo. In kind it is biochemical. How it is done:
as §1, with “Solution” for “Pharmacological Experiment 2:”, “Add” for “Adding”, “signal:” for “signal;”, “microplate reader.” for “instrument.”, “GLK kinase IC50” for “enzymatic IC 50”

Chain of GLK (Q8IVH8 whole entry, species assumed): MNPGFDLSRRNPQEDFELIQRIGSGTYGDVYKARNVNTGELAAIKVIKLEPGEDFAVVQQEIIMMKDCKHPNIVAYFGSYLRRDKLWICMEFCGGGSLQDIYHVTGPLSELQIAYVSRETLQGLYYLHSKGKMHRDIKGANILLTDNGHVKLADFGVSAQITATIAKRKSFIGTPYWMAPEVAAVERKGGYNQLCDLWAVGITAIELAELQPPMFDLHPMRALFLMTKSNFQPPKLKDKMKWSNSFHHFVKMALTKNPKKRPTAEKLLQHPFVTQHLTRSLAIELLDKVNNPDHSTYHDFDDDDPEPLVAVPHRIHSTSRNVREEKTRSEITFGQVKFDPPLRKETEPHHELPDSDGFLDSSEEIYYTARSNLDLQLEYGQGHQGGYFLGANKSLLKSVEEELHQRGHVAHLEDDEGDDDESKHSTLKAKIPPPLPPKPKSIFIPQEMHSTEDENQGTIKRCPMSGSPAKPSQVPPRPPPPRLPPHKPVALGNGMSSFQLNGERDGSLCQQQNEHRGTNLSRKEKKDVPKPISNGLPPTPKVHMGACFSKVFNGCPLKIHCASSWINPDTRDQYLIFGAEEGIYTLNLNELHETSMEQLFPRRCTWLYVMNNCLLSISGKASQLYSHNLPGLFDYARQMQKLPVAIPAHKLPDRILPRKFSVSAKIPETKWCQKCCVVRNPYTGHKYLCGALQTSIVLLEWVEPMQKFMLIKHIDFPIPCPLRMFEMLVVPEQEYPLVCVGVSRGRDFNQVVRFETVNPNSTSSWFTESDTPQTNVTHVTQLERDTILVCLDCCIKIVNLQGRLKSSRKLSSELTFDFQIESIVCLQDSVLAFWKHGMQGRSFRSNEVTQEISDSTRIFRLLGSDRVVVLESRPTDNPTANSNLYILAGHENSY
Chain of HPK1 (Q92918 whole entry, species assumed): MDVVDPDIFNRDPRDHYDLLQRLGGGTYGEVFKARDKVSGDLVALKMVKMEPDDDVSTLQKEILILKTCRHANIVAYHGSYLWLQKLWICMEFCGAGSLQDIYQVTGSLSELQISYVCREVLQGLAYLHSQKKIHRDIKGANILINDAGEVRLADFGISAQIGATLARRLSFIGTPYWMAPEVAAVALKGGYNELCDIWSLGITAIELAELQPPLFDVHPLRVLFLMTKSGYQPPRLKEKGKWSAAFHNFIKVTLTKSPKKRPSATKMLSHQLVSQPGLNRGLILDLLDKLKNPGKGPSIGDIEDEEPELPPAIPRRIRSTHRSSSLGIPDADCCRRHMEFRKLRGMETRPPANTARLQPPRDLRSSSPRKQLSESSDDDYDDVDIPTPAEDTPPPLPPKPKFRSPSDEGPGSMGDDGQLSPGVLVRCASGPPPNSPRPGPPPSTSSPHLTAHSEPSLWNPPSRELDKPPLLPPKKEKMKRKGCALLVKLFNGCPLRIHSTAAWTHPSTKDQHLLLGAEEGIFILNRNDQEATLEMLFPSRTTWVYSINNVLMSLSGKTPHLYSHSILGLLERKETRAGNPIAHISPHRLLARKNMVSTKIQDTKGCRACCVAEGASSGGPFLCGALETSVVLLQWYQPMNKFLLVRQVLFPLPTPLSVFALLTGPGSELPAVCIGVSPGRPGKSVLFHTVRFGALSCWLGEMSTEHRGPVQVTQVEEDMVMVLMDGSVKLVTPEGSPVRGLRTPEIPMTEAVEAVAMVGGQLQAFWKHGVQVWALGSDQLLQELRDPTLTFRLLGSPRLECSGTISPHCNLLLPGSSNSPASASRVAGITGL

On to `CN(C1CCOCC1)C1CC2(CCOCC2)c2ccc(Nc3ccc(-c4cnc5cc(F)ccn45)c4c3C(=O)NC4)nc21` (stereo not shown) [Compound 93], for which the results for the IC50 against HPK1 and on GLK were 27 nM and over 25000 nM, respectively.
As to `COC1(C)CCN(C2CC3(CCOCC3)c3ccc(Nc4ccc(-c5cnc6cc(F)ccn56)c5c4C(=O)NC5)nc32)CC1` (stereo not shown) [Compound 94], the IC50 on HPK1 was 9.27 nM; at GLK, 4530 nM.
With `O=C1NCc2c(-c3cnc4cc(F)ccn34)ccc(Nc3ccc4c(n3)C(N3CCC(F)(F)CC3)CC43CCOCC3)c21` (stereo not shown) [Compound 98], the results for the IC50 at HPK1 and on GLK were 12.4 nM and over 30000 nM, respectively.
On to `CC(C)(C)NC1CC2(CCOCC2)c2ccc(Nc3ccc(-c4cnc5cc(F)ccn45)c4c3C(=O)NC4)nc21` (stereo not shown) [Compound 101], for which the IC50 came out at 5.22 nM at HPK1 and 858 nM at GLK.
For `CC(C)NC1CC2(CCOCC2)c2ccc(Nc3ccc(-c4cnc5cc(F)ccn45)c4c3C(=O)NC4)nc21` (stereo not shown) [Compound 102], in that order: 7.42 nM and over 30000 nM.
For `COCCNC1CC2(CCOCC2)c2ccc(Nc3ccc(-c4cnc5cc(F)ccn45)c4c3C(=O)NC4)nc21` (stereo not shown) [Compound 106], in that order: 3.46 nM and 697 nM.
In the case of `O=C1NCc2c(-c3cnc4cc(F)ccn34)ccc(Nc3ccc4c(n3)C(NC3CCCC3)CC43CCOCC3)c21` (stereo not shown) [Compound 109], the IC50 on HPK1 came out at 5.97 nM; on GLK, 791 nM.
With `O=C1NCc2c(-c3cnc4cc(F)ccn34)ccc(Nc3ccc4c(n3)C(N3C[C@H]5C[C@@H]3CO5)CC43CCOCC3)c21` (stereo partly shown) [Compound 110], the IC50 came out at 2.67 nM at HPK1 and 317 nM against GLK.
Consider `O=C1NCc2c(-c3cnc4cc(F)ccn34)ccc(Nc3ccc4c(n3)C(NCC3CC3)CC43CCOCC3)c21` (stereo not shown) [Compound 117], for which the IC50 on HPK1 was determined as 5.04 nM; against GLK, 562 nM.
As for `CC(C)N1Cc2nc(Nc3ccc(-c4cnc5cc(F)ccn45)c4c3C(=O)NC4)ccc2C2(CCOCC2)C1` [Compound 119], the values for the IC50 against HPK1 and at GLK were 29.8 nM and over 3000 nM, respectively.
As for `O=C1NCc2c(-c3cnc4cc(F)ccn34)ccc(Nc3ccc4c(n3)CN(CC3CC3)CC43CCOCC3)c21` [Compound 120], the IC50 at HPK1 is 11 nM; against GLK, over 3000 nM.
As for `CCN1Cc2nc(Nc3ccc(-c4cnc5cc(F)ccn45)c4c3C(=O)NC4)ccc2C2(CCOCC2)C1` [Compound 124], the IC50 against HPK1 is 8.47 nM; against GLK it was 2760 nM.
`O=C1NCc2c(-c3cnc4cc(F)ccn34)ccc(Nc3ccc4c(n3)C(N3CCC(F)CC3)CC43CCOCC3)c21` (stereo not shown) [Compound 144]: the IC50 at HPK1 was 7.42 nM; against GLK it was over 3000 nM.
The like results for `N#Cc1ccn2c(-c3ccc(Nc4ccc5c(n4)CCCC54CCOCC4)c4c3CNC4=O)cnc2c1` [Compound 146, 3-(7-((2,3,5,6,7′,8′-HEXAHYDRO-6′-H-SPIRO[PYRAN-4,5′-[1,7]NAPHTHYRIDINE]-2′-YL)AMINO)-1-OXOISOINDOL-4-YL)IMIDAZO[1,2-A]PYRIDINE-7-CARBONITRILE] were, in that order, 4.33 nM and 1230 nM.
For `O=C1NCc2c(-c3cnc4n3CCOC4)ccc(Nc3ccc4c(n3)CNCC43CCOCC3)c21` [Compound 153], in that order: 34.5 nM and 2170 nM.
For `O=C1NCc2c(-c3cnn4c3CCCC4)ccc(Nc3ccc4c(n3)CNCC43CCOCC3)c21` [Compound 154], the IC50 at HPK1 turned out to be 10.9 nM; against GLK it was 646 nM.
On to `CN(C)C1CC2(CCOCC2)c2ccc(Nc3ccc(-c4cnc5cc(C#N)ccn45)c4c3C(=O)NC4)nc21` (stereo not shown) [Compound 157, 3-(7-((7-(DIMETHYLAMINO)-2′,3′,5′,6,6′,7-HEXAHYDROSPIRO]CYCLOPENTANE[B]PYRIDINE-5,4′-PYRAN]-2-YL)AMINO)-1-OXOISOINDOL-4-YL)IMIDAZO[1,2-A]PYRIDINE-7-CARBONITRILE], for which the half-maximal inhibitory concentration (IC50) on HPK1 amounted to 5.9 nM; on GLK, 877 nM.
For `CN(C)C1CC2(CCOCC2)c2ccc(Nc3ccc(-c4cnc5cc(C(F)F)ccn45)c4c3C(=O)NC4)nc21` (stereo not shown) [Compound 160, 4-(7-(DIFLUOROMETHYL)IMIDAZO[1,2-A]PYRIDIN-3-YL)-7-((7-(METHYLAMINO)-2′,3′,5′,6,6′,7-HEXAHYDRO SPIRO[CYCLOPENTANE[B]PYRIDINE-5,4′-PYRAN]-2-YL)AMINO)ISOINDOL-1-ONE], in that order: 6.57 nM and 460 nM.
For `CN(C)C1CC2(CCOCC2)c2ccc(Nc3ccc(-c4cnc5n4CCOC5)c4c3C(=O)NC4)nc21` (stereo not shown) [Compound 165, 4-(5,6-DIHYDRO-8H-IMIDAZO[2,1-C][1,4]OXAZIN-3-YL)-7-((7-(DIMETHYLAMINO)-2′,3′,5′,6,6′,7-HEXAHYDROSPIRO[CYCLOPENTA[B]PYRIDINE-5,4′-PYRAN]-2-YL)AMINO)ISOINDOL-1-ONE], the IC50 stood at 24.9 nM against HPK1 and 1190 nM against GLK.
On to `O=C1NCc2c(-c3cnc4n3CCCC4)ccc(Nc3ccc4c(n3)CCCC43CCOCC3)c21` [Compound 167], for which the half-maximal inhibitory concentration (IC50) against HPK1 came to 25.3 nM; against GLK, 1370 nM.
For `N#Cc1ccn2c(-c3ccc(Nc4ccc5c(n4)C(N4CCCC4)CC54CCOCC4)c4c3CNC4=O)cnc2c1` (stereo not shown) [Compound 168, 3-(1-OXO-7-((7-(PYRROLIDIN-1-YL)-2′,3′,5′,6,6′,7-HEXAHYDROSPIRO[CYCLOPENTA[B]PYRIDINE-5,4′-PYRAN]-2-YL)AMINO)ISOINDOL-4-YL)IMIDAZO[1,2-A]PYRIDINE-7-CARBONITRILE], in that order: 5.27 nM and 289 nM.
`O=C1NCc2c(-c3cnc4cc(OC(F)F)ccn34)ccc(Nc3ccc4c(n3)C(N3CCCC3)CC43CCOCC3)c21` (stereo not shown) [Compound 169, 4-(7-(DIFLUOROMETHOXY)IMIDAZO[1,2-A]PYRIDIN-3-YL)-7-((7-(PYRROLIDIN-1-YL)-2′,3′,5′,6,6′,7-HEXAHYDROSPIRO[CYCLOPENTA[B]PYRIDINE-5,4′-PYRAN]-2-YL)AMINO)ISOINDOL-1-ONE]: the 50% inhibitory concentration (IC50) turned out to be 9.19 nM on HPK1 and 223 nM on GLK.
For `CN(C)C1CC2(CCOC2)c2ccc(Nc3ccc(-c4cnc5cc(OC(F)F)ccn45)c4c3C(=O)NC4)nc21` (stereo not shown) [Compound 172, 4-(7-(DIFLUOROMETHOXY)IMIDAZO[1,2-A]PYRIDIN-3-YL)-7-((7-(METHYLAMINO)-4′,5′,6,7-TETRAHYDRO-2′-H-PYRIDO[CYCLOPENTYL[B]PYRIDINE-5,3′-FURAN]-2-YL)AMINO)ISOINDOLIN-1-ONE], in that order: 13.8 nM and 1120 nM.
On to `CN(C)C1COC2(CCC2)c2ccc(Nc3ccc(-c4cnc5cc(F)ccn45)c4c3C(=O)NC4)nc21` (stereo not shown) [Compound 173], for which the values for the IC50 against HPK1 and on GLK were 8.47 nM and 3200 nM, respectively.
For `CN(C)C1CC2(CCOCC2)c2ccc(Nc3ccc(-c4cnc5cc(N)ccn45)c4c3C(=O)NC4)nc21` (stereo not shown) [Compound 174, 4-(7-AMINOIMIDAZO[1,2-A]PYRIDIN-3-YL)-7-((7-(DIMETHYLAMINO)-2′,3′,5′,6,6′,7-HEXAHYDROSPIRO[CY CLOPENTADIENYL[B]PYRIDINE-54′-PYRAN]-2-YL)AMINO)ISOINDOL-1-ONE], the IC50 came out at 19.2 nM against HPK1 and 566 nM against GLK.
As to `O=C1NCc2c(-c3cnc4cc(OC(F)F)ccn34)ccc(Nc3ccc4c(n3)C(NC3CC3)CC43CCOCC3)c21` (stereo not shown) [Compound 178, 7-((7-(CYCLOPROPYLAMINO)-2′,3′,5′,6,6′,7-HEXAHYDROSPIRO[CYCLOPENTADIENYL[B]PYRIDINE-54′-PYRAN]-2-YL)AMINO)-4-(7-(DIFLUOROMETHOXY)IMIDAZO[1,2-A]PYRIDIN-3-YL)ISOINDOLIN-1-ONE], the results for the IC50 at HPK1 and on GLK were 13.7 nM and 1240 nM, respectively.

The values are drawn from patent publication US20250361241A1, “HPK1 INHIBITOR AND MEDICAL USE THEREOF” (Betta Pharmaceuticals Co., Ltd., priority 2022, published 2025).
